Assay results: patent US11970521B2, “Neuroprotective beta amyloid core peptides and peptidomimetic derivatives” (priority 2016, dated 2024)
Where no end group is shown, it is not given here. [ ]: non-standard residue; d: D form.

Columns and labels:
[1] = molecular target: T1, α4β2-nAChRs (Mus musculus, UniProt O70174+Q9ERK7); test: Ca2+ imaging (Fluo-4) in varicosities of NG108-15 cells expressing α4β2-nAChRs; assay type: cell-based; details: 100 nM; FIG. 13B
T1 construct: expressed in transfected cells; host or cells: differentiated NG108-15 rodent hybrid neuroblastoma cells, pcDNA3.1 vectors, transient transfection with FuGENE HD
T1 sequence (O70174 31-629): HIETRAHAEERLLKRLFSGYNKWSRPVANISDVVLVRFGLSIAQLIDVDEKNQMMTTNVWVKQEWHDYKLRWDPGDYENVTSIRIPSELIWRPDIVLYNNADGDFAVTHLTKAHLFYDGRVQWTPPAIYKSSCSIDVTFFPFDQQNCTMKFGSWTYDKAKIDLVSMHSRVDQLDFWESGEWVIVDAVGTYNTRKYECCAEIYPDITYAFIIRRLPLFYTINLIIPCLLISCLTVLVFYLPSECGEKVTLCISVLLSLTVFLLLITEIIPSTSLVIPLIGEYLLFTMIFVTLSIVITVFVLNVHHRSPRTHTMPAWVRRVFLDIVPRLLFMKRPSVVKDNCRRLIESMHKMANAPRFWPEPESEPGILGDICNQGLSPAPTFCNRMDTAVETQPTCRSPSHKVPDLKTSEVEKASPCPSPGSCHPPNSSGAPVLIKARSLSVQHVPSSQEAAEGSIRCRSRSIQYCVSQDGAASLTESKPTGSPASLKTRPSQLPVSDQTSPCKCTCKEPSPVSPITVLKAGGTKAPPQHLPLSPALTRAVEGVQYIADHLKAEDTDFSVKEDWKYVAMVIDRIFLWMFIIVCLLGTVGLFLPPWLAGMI
T1 sequence (Q9ERK7 26-501): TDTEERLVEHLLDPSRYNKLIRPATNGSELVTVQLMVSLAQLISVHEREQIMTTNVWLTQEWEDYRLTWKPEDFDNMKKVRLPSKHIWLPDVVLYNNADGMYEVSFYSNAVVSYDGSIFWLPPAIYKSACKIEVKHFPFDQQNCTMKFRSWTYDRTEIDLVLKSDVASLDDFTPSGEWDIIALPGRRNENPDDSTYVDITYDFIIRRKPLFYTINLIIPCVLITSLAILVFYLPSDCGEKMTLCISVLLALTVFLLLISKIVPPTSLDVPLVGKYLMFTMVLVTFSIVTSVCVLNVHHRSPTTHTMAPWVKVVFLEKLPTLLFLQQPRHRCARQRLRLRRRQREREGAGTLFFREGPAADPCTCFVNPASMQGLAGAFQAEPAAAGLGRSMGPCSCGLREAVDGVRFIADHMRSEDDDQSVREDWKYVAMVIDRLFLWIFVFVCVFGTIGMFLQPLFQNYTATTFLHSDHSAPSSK
Method: (§1) Neuroblestoma Clonal Cell Culture and Transfection. Rodent hybrid neuroblastoma NG108-15 cells were used as a model nerve cell system allowing reconstitution with defined target receptors for Aβ. The cells were cultured in Dulbecco's modified Eagle's medium (DMEM) containing 15% fetal bovine serum (FBS) and differentiated in the presence of reduced serum (1% FBS) and 1 mM dibutyryl cyclic AMP for 72 h, Expression vectors (pcDNA3.1) containing mouse sequences for α4 and β2 nAChR subunits (1:4 ratio respectively) were transiently transfected into the cells using FuGENE HD (ThernioFisher, catalog #PRE2311) for 48 h. Mock-transfected NG108-15 cells, exposed only to FuGENE HO and not plasmid DNA, were used as controls.
Ca^2+ Imaging Fluo-4, a Ca^2+ indicator dye, was loaded into cells on coverslips and visualization of [Ca^2+] was done via a Nikon PCM 2000 Cameleon AOTF confocal microscope. Each time-series was normalized to baseline fluorescence intensity at time zero (F/F0). After recording a baseline image series, each treatment was perfused over cells for 2.5 minutes or 15 minutes and quantification of relative fluorescence changes was analyzed through imageJ.

[2] = system: NG108-15 cells expressing α4β2-nAChRs; test: Cell stress (ROS) assay, α4β2-nAChR-transfected differentiated NG108-15 cells treated with Aβ1-42; assay type: cell-based, rodent; details: for Aβ1-42-induced ROS, co-treatment with stabilized peptides: daily 100 nM with 100 nM Aβ1-42, FIG. 9B, p<0.05 vs. Aβ1-42 alone
Description: (§2) In Vitro Neuronal Models. The studies were, performed on the NG108-15 rodent hybrid neuroblastoma cell line and primary hippocampal neuron cultures. The cell line can be differentiated, yielding axonal neurites with presynaptic-like varicosities that have the ability to release acetylcholine via exocytosis in response to stimulation. […] The primary hippocampal neuron cultures provide a physiologically relevant model.
as §1
Cell Stress Assays. Cells were plated, differentiated and treated for 3 days poor to assay. Cell count and fluorescence intensity of reactive oxygen species (ROS)-positive cells were assessed as a means to measure cellular oxidative stress using an Image-IT® LIVE Green Reactive Oxygen Species Detection Kit. In brief, the cells were treated for three days for NG108-15 cultures end five or ten days for primary hippocampal neuronal cultures. The media was changed every day, thus replenishing with fresh Aβ every 24 h, unless otherwise noted. Thereafter, the cells were incubated with carboxy-H2DCFDA (component A) at 37° C. for 30 min. During the last 5 min of incubation, 2 μg/ml of HOECHST stain (component B) was added to assess, in parallel, the integrity of the cell nuclei. The cells were washed twice with HBS and visualized using an Olympus IX81 epifluorescence microscope at excitation/emission of 495) 529 nm (ROS) and 350/461 nm (HOECHST), respectively.

[3] = system: NG108-15 cells expressing α4β2-nAChRs; test: Cell death (apoptosis) TUNEL assay, α4β2-nAChR-transfected NG108-15 cells; assay type: cell-based, rodent; details: nM co-treatment on day 1, 2 or 3 after start of daily Aβ1-42; FIG. 14A; p<0.0001
Method: as §1
Cell Death (Apoptosis) Assay. Cells were plated, differentiated and treated for either 3 or 4 days prior to assay. Apoptotic cells were detected as DNA fragmentation by Click-IT TUNEL Alexa fluor 488. In brief, the cells were treated for four days, exchanging media each day. After the fourth day of treatment, the cells were fixed with freshly prepared 4% paraformaldehyde in PBS at room temperature for 20 min and permeabilized with Triton X-100 (0.25% in PBS) for another 20 min. The cultures were then washed twice and incubated with 50 μL of terminal deoxynucleotidyi transferase reaction buffer (Component A) for 10 min at room temperature. […]

[4] = system: primary hippocampal neurons; test: Cell stress (ROS) assay in primary hippocampal neuron cultures; assay type: cell-based, mouse; details: 1 μM with 1 μM Aβ1-42, 5 or 10 days; p<0.0001
Description: Hippocampal Neuron Culture. All animal procedures followed an tACUC-approved protocol in accordance with animal welfare guidelines, Hippocampal neuron cultures even prepared from neonatal mouse pups (0-2d old) of either gender (roughly equivalent numbers) obtained from established colonies of wild-type B6.SJL (background) mice. Following rapid decapitation, brains were removed into ice-cold Neurobasal A medium (NB) containing B-27 supplement, 5% fetal bovine serum and Gentamicin (serum NB). Hippocampi were then isolated under a stereomicroscope. The hippocampi were digested with papain (Worthington, catalog #35N16202) in Hanks with 10 mM cysteine at 37° C. for 15 mins. The preparations were washed by centrifugation in serum NB. The cells were dissociated using sequential trituration with polished Pasteur pipettes of decreasing diameter and collected by low-speed centrifugation. The dissociated cells were preplated in standard tissue culture dishes to remove adherent non-neuronal cells (glia; fibroblasts) for 10-15 mins. […]

[5] = system: NG108-15 cells expressing α4β2-nAChRs; test: Cell survival (daily cell counts), NG108-15 cells with α4β2-nAChRs; assay type: cell-based, rodent; details: 100 nM co-treatment with 100 nM Aβ1-42; FIG. 10A; p<0.0001
Method: Neuroblestoma Clonal Cell Culture and Transfection. Rodent hybrid neuroblastoma NG108-15 cells were used as a model nerve cell system allowing reconstitution with defined target receptors for Aβ. […] Mock-transfected NG108-15 cells, exposed only to FuGENE HO and not plasmid DNA, were used as controls.
(§3) Cell Survival. Cell survival was determined by counting cells everyday for 7 or 10 days of treatment. For each condition, all cells in 5 random fields of view were counted and averaged. Percent cell death was calculated based on daily cell counts as a proportion of starting cell count numbers (i.e. day 0).

[6] = system: mock-transfected NG108-15 cells; test: Cell stress (ROS) assay, mock-transfected NG108-15 cells (absent nAChRs) treated with μM Aβ1-42; assay type: cell-based, rodent; details: co-treatment with nM-μM concentrations and 1 μM Aβ1-42; FIG. 6A; p<0.0001
Description: as §2, §1
Cell Stress Assays. […] Cell count and fluorescence intensity of reactive oxygen species (ROS)-positive cells were assessed as a means to measure cellular oxidative stress using an Image-IT® LIVE Green Reactive Oxygen Species Detection Kit. […]

[7] = system: mock-transfected NG108-15 cells; test: Cell death (apoptosis) TUNEL assay, NG108-15 cells without nAChRs; assay type: cell-based; details: nM-μM co-treatment over four days with 1 μM Aβ1-42; FIG. 14B; trend of greater reduction at μM
Method: as §1

[8] = system: primary hippocampal neurons; test: Cell survival (cell counts), primary hippocampal neurons; assay type: cell-based, mouse; details: 1 μM with 1 μM Aβ1-42; FIG. 10B; p<0.0001
Method: as §3

| Substance | Average peak Ca2+ response relative to N-Aβcore [1] | Aβ1-42-induced ROS, co-treatment with stabilized peptides [2] | Aβ1-42-induced apoptosis (TUNEL staining) [3] | Aβ1-42-induced ROS in primary neurons, co-treatment [4] | Aβ1-42-induced cell death at 7 days, co-treatment [5] | Aβ1-42-induced oxidative stress (ROS) in absence of nAChRs [6] | Aβ1-42-induced DNA-fragmentation in absence of nAChRs [7] | Aβ1-42-induced ROS, co-treatment or post-treatment (rescue) ([2]; nM concentrations, co-treatment or rescue for 3-, 2- or 1-day, 100 nM Aβ1-42, FIG. 5A, p<0.0001) | Aβ1-42-induced cell death over 10-day treatments, co-treatment [8] |
| --- | --- | --- | --- | --- | --- | --- | --- | --- | --- |
| Capped-D-[Aβcore]: D-enantiomer N-Aβcore with N-terminal acetylation and C-terminal amidation (Ac-[dY][dE][dV][dH][dH][dQ]-NH2; SMILES CC(=O)N[C@H](Cc1ccc(O)cc1)C(=O)N[C@H](CCC(=O)O)C(=O)N[C@@H](C(=O)N[C@H](Cc1c[nH]cn1)C(=O)N[C@H](Cc1c[nH]cn1)C(=O)N[C@H](CCC(N)=O)C(N)=O)C(C)C) | retains activity | reduces ROS |  |  |  |  |  |  |  |
| D-[Aβcore]: N-Aβcore converted from L-configuration to D-configuration for each amino acid ([dY][dE][dV][dH][dH][dQ]) | retains activity | reduces ROS |  |  |  |  |  |  |  |
| Tyrosine-Glutamate-Valine-Histidine-Histidine-Glutamine [N-Aβcore] |  |  | reduced apoptosis compared to Aβ1-42 alone | reduced the levels of ROS down to untreated (baseline) levels | able to fully protect against Aβ1-42-induced cell death | reduced this oxidative stress compared to Aβ1-42 alone | reduced DNA-fragmentation compared to Aβ1-42 alone | reduced Aβ1-42-induced ROS back to baseline levels | protected primary hippocampal neurons against β1-42-induced cell death |
| capped-N-Aβcore: N-Aβcore with N-terminus capped with an acetyl group and C-terminus with an amide group (Ac-YEVHHQ-NH2) | retained its potent activity | reduces ROS |  |  |  |  |  |  |  |
